Data on two compounds can be found in patent publication US20080119548A1, “Control Of Feeding Behavior By Changing Neuronal Energy Balance” (priority 2004, published 2008).

Each structure is given as a SMILES string. Where two headings read alike, the source gives them in different places.

One test has as its system BALB/c male mice. The test is described as follows: Measurement of food intake after i.c.v. or i.p. injection. It is filed as in vivo. Particulars: for reduction in food intake: compound C 5 mg i.c.v. As for the experimental part:
Male BALB/c mice (7-9 weeks) were purchased from Charles River Laboratories (and housed in a controlled-light (12 hr light/12 hr dark cycle) environment (lights on 0200-1400 h) and allowed ad libitum access to standard laboratory chow and water. For fasting, food was withdrawn from cage at the onset of the dark cycle for 24 hr, but ad libitum access to water was allowed.
(§1) Mice were implanted with permanent stainless steel cannulae into the lateral ventricle of the brain 0.6 mm caudal to Bregma, 1.2 mm lateral to the midline, and sunk to a depth of 2.2 mm below the surface of the skull. Implanted mice were housed in individual cages and utilized for i.c.v. and i.p. injections as indicated. C75 dissolved in RPMI1640 (Gibco-BRL), AICAR (Toronto Research Chemicals Inc) or compound C (46) (FASgen, Inc.) in saline was injected i.c.v., such that desired dose could be administered in a volume of 2.5 μl, while control groups received vehicle only. Injections were done immediately preceding dark onset and food intake measurements were taken at 1 hr (0-1 hr interval), 3 hr (1-3 hr interval), and 24 hr (3-24 hr interval) after dark onset. C75 i.p./AICAR i.c.v. treatment groups were i.p. injected with 5 mg/kg bodyweight C75 dissolved in […] of glucose-free RPMI 1 hr before the dark onset, followed by 3 μg/2.5 μl saline i.c.v. AICAR immediately preceding the dark onset. Control groups received 200 μl of glucose free RPMI 1 hr before lights off and 2.5 μl of saline. Administration of i.p. compound C (10 or 30 mg/kg bodyweight) or C75 (10 mg/kg bodyweight) was followed by food intake measurement at the same times indicated.

A short description of test [1]: Changes in bodyweight 24 hr after i.c.v. injection. It is filed as in vivo, mice.
Excerpt: as §1, with “(d) Changes in bodyweight 24 hr after i.c.v. injection of C75, AICAR or compound C (n=4-10). Mice” for “Mice”, “[…],” for “C (46) (FASgen,”, “[…].” for “C75 i.p./AICAR i.c.v.”

Test [2] deals with hypothalamic AMPKα (α1 and α2). The test can be described thus: Western blot of phosphorylated AMPKα in hypothalamus. It is filed as in vivo, mice. Particulars: 30 min after i.c.v. injection. As for the experimental part: Hypothalami were dissected using as landmarks the optic chiasm rostrally, and the mammillary bodies caudally to a depth of 2 mm. Dissected hypothalamic and liver tissue were immediately frozen in liquid nitrogen. Tissues were homogenized in 200 μl of lysis buffer (50 mM Tris-HCl, pH 7.5, 250 mM sucrose, 5 mM sodium pyrophosphate, 50 mM NaF, 1 mM EDTA, 1 mM EGTA, 1 mM DTT, 0.5 mM PMSF, 0.1 mM benzamidine, 50 μg/ml leupeptin, 50 μg/ml soybean trypsin inhibitor). SDS detergent was added to a final 0.2%, and lysates were boiled for 5 min. After the supernatant was harvested, protein concentration was determined by BCA kit (Bio Rad). Phosphorylation of AMPKα was determined on a 4-15% gradient SDS-polyacrylamide gel using anti-phospho-AMPKα (α1 and α2, Thr172) antibody (1:1000, Cell Signaling). Anti-AMPKαt antibody (α1 and α2, 1:1000, Cell Signaling) was used as a loading control.

A further test deals with pCREB. The test is described as follows: Immunohistochemistry of pCREB in the arcuate nucleus. It is filed as in vivo, mice. As to conditions: AICAR (3 mg) i.c.v., 20 hr after injection. As for the experimental part:
Free-floating sections were blocked in PBS containing 5% goat serum, 0.1% BSA, 0.05% Triton-X100, 1 mM NaF for 1 hr at room temperature and incubated with anti-phospho-AMPKα (α1 and α2) antibody (1:100) or anti-phospho-CREB antibody (1:500, Cell Signaling) in PBS containing 1% goat serum, 0.1% BSA, 0.05% Triton-X100, 1 mM NaF overnight at 4° C. Signal was visualized by Vectastain ABC kit (Vector). Images of in situ hybridization and immunohistochemistry were visualized using an Axiocam HRc digital camera (Carl Zeiss) and images were acquired using Improvision Openlab software, and quantified by NIH Image program (Macro).

The subject of another test is hypothalamic NPY. Here is the method: Hypothalamic total RNA was purified using Trizol reagent (Gibco-BRL) and Northern blot analysis using 15 μg of total RNA was performed as described by Kim, et al, Am J Physiol Endocrinol Metab., 283, […]-879 (2002). RNA was hybridized with random primed ^32P-labeled DNA probes made from cloned plasmids of mouse AGRP (Genebank #U89486), human NPY (XM004941), rat CART (U10071), and mouse POMC (AH005319). As a loading control, the probe for mouse GAPDH gene was used at the same blot. The signals were quantified using an image analyzer (Molecular Dynamics) and Imagequant software.

For test [3] the following is noted: chronic subcutaneous AICAR 1 g/kg bodyweight for 4 weeks; cited from earlier work.

As for `c1cc(-c2cnn3cc(-c4ccc(OCCN5CCCCC5)cc4)cnc23)ccn1` [compound C], the “reduction in food intake” value in the test on BALB/c male mice (0-1 hr) is 36.2%; in the test on BALB/c male mice (3-24 hr) it was 37.8%; in the test with BALB/c male mice (over 24 hr) it was 35.6%. Also, the “food intake, % of control” value in the test with BALB/c male mice (compound C 30 mg/kg bodyweight i.p., 0-1 hr) is 27.4 % of control; in the test with BALB/c male mice (compound C 30 mg/kg bodyweight i.p., 1-3 hr), 3.68 % of control; in the test with BALB/c male mice (compound C 30 mg/kg bodyweight i.p., 3-24 hr), 65.7 % of control; in the test with BALB/c male mice (compound C 30 mg/kg bodyweight i.p., total), 57.8 % of control. Besides, the bodyweight entry in test [1] (compound C 5 mg i.c.v.) is recorded as “weight loss”.

With `NC(=O)c1ncn([C@@H]2O[C@H](CO)[C@@H](O)[C@H]2O)c1N` [AICAR, 5-aminoimidazole-4-carboxamide-1-b-D-ribofuranoside], the “food intake, % of control” value in the test with BALB/c male mice (AICAR 3 μg i.c.v., 3-24 hr) is 135%. For the same compound, the “total 24 hr food intake, % of control” value in the test on BALB/c male mice (AICAR 3 μg i.c.v., total 24 hr) is 130 % of control. Further, the “food intake, % of control” value in the test with BALB/c male mice (AICAR 3 μg i.c.v., within 1 hr) turned out to be 230%. In addition, the “food intake at 1 hr, % of the amount of C75/saline treatment” value in the test on BALB/c male mice (C75 5 mg/kg i.p. followed 1 hr later by AICAR 3 mg i.c.v., p<0.001) was 346%. Moreover, the bodyweight entry in test [1] (AICAR single dose 3 μg i.c.v.) was “no significant effect on bodyweight”. Moreover, the “C75-induced decrease in hypothalamic pAMPKα levels” value in test [2] (i.p. C75 and i.c.v. AICAR) is recorded as “completely reversed”. Moreover, in test [2] (i.p. RPMI and i.c.v. AICAR, vs vehicle), the “hypothalamic pAMPKα level” value was “increased”. Also, the “pCREB level in the arcuate, % of control” value in the test on pCREB is given as 231 % of control. Moreover, the “hypothalamic NPY expression” value in the test on hypothalamic NPY (AICAR (3 mg) i.c.v., 20 hrs after administration, p<0.001) is on record as “significantly increased”. In the test on hypothalamic NPY (AICAR i.c.v., within 5 hr (data not shown)), the NPY expression entry was “no change”. Moreover, in test [3], the bodyweight entry is listed as “no impact”, the fat pad mass entry is given as “reduction in fat pad mass”, the food intake entry is reported as “no impact” and the liver mass result was “increase in liver mass”.
